Measured values published in PMC8151276, “An Integrated Approach toward NanoBRET Tracers for Analysis of GPCR Ligand Engagement” (Molecules, 2021).

Columns and labels:
[1] = target: T1, HTR1D (Homo sapiens, UniProt P28221); test: NanoBRET screen HiBiT-HTR1D in HEK293; type: binding; conditions: HTR1D
T1 construct: purchased Promega (in-house HiBiT-GPCR construct library, NanoBRET)
Experimental: (§1) Each tracer candidate was screened across the entire library of HiBiT-GPCR constructs using NanoBRET as the detection modality. As depicted in Figure 4A, the specificity of interactions was evaluated through decrease in BRET due to competitive displacement of a bound tracer by excess parental compound. Each tracer was analyzed for binding to each HiBiT-GPCR fusion in the absence and in the presence of competing parental compound. Briefly, HEK293 cells were transfected with HiBiT-GPCR constructs diluted into promoterless DNA to reduce expression and maximize translocation to the cell surface. Each tracer candidate was then screened at concentrations of 1 μM and 0.1 μM across cells expressing these fusions. Cells were treated for 1.5 h with tracer either alone or in the presence of 20 μM competing parental compound (i.e., control). BRET was measured upon addition of purified LgBiT and subsequent complementation with HiBiT genetically fused to a GPCR. The specificity of interactions was assessed through a decrease in BRET signal due to competitive displacement of the bound tracer. To further gauge the robustness of these interactions, the fold response over the control (i.e., BRETtracer/BRETcontrol) was calculated. We chose a 1.5-fold response, which translates to ≥7-fold signal over noise as the minimal threshold required to score an interaction as positive. […]. Below we highlight the screening results obtained for our exemplary fluorescent tracers based on Clozapine, Amitriptyline and AZD1283.
(§2) HiBiT-GPCR DNA constructs were diluted in 10 mM Tris pH 8 to a final concentration of 0.01 μg/μL, arrayed in 96-well plates and stored at −20 °C. For transfection, HEK293 cells were suspended in Opti-MEM (without phenol red) supplemented with 2% fetal bovine serum (Seradigm) and 100 units/mL penicillin–streptomycin (Gibco) at a final concentration of 220,000 cells/mL and dispensed into white 96-well plates at 90 μL/well. Subsequent transfections and screens were carried using an Agilent Bravo Automated Liquid Handling Platform. First, the 96-well HiBiT DNA arrays were diluted 25-fold in Opti-MEM (without serum or phenol red) to a final concentration of 0.0004 μg/μL and 20 μL of the diluted DNAs were transferred into new 96-well plates. Next, promoterless carrier DNA (1 μg/μL) was diluted 25-fold (0.04 μg/μL) and then dispensed into the diluted arrays at 20 μL/well. Following brief mixing, Viafect transfection reagent (Promega) diluted 16-fold into Opti-MEM was dispensed into the plates at 40 μL/well. After mixing by pipetting, plates were incubated for 10 min on the pipetting station deck. The DNA-transfection reagent complexes were then added to plates containing cells. To facilitate the screen, 10 μL of DNA-transfection reagent complexes were added in duplicates to the top 4 and bottom 4 rows, resulting in two identical 48-well arrays per plate. Plates with transfected cells were incubated for 18–20 h at 37 °C/5% CO2. A screen of each tracer across the entire library using two different concentrations requires duplicate plates of transfected cells. Depending on the number of tracers being screened, transfections can be scaled up using the same ratios. The next day, for each tracer, four 20× screening solutions in tracer dilution buffer (Promega) were prepared: two duplicates at final concentration of 20 μM and two duplicates at a final concentration of 2 μM. A competing unmodified compound was added to one of each duplicate at a final concentration of 400 μM. The four resulting solutions were diluted 4-fold in Opti-MEM without serum or phenol red to generate 5× solutions (5 µM and 0.5 µM tracer +/− 100 μM competing compound). To screen the library, a BioTek MultiFlo FX liquid dispenser was used to dispense 22.5 µL of tracer solution to the top 4 rows and 22.5 µL tracer + competing compound solution to the 4 bottom rows. Plates were briefly mixed on an orbital shaker and incubated for 1.5 h at room temperature. […]

[2] = target: T2, PTGDR (Homo sapiens, UniProt Q13258); test: NanoBRET screen HiBiT-PTGDR in HEK293; type: binding; conditions: PTGDR
T2 construct: purchased Promega (in-house HiBiT-GPCR construct library, NanoBRET)
T2 sequence (Q13258 1-359): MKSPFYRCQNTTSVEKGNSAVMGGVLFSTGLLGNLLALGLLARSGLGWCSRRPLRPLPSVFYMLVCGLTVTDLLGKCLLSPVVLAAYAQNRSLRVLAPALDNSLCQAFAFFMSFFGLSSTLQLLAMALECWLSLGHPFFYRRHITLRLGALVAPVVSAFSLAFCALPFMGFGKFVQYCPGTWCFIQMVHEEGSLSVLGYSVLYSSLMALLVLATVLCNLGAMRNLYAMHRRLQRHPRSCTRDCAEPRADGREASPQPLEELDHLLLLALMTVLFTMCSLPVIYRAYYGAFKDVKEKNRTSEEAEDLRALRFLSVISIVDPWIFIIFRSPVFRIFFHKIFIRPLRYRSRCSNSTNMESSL
Experimental: as §1, §2

T1 sequence (P28221 whole entry): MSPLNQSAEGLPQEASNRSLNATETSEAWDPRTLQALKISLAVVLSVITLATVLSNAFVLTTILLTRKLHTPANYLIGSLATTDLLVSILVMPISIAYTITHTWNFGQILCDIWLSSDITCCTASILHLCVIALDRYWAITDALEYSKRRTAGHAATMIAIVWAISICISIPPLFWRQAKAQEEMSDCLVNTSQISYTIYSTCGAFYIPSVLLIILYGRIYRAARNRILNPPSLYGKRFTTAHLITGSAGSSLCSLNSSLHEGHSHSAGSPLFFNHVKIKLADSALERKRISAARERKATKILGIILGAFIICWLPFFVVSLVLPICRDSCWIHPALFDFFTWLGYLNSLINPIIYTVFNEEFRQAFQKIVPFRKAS

SMILES | NanoBRET Fold Response ([1]; tracer 0.1μM) | NanoBRET Fold Response ([1]; tracer 1μM) | NanoBRET Fold Response ([2]; tracer 0.1μM) | NanoBRET Fold Response ([2]; tracer 1μM) | NanoBRET Fold Response ([1]; 0.1μM tracer) | NanoBRET Fold Response ([1]; 1μM tracer) | NanoBRET Fold Response ([2]; 0.1μM tracer) | NanoBRET Fold Response ([2]; 1μM tracer)
CC(C)N(CC[C@H](c1ccccc1)c1cc(CCNC(=O)c2ccc(CNC(=O)CCc3ccc4n3[B-](F)(F)[N+]3=C(c5ccc[nH]5)C=CC3=C4)cc2)ccc1O)C(C)C [Tolterodine-BZ-NB590] | 1.27 | 0.92 | 1.03 | 0.98 | – | – | – | –
CN1CCN(C2=Nc3cc(Cl)ccc3Nc3ccc(CNC(=O)CCOCCOCCOCCOCCNC(=O)CCc4ccc5n4[B-](F)(F)[N+]4=C(c6ccc[nH]6)C=CC4=C5)cc32)CC1 [Clozapine-b-2-NB590] | – | – | – | – | 1.08 | 1.48 | 1.10 | 1.01
